Measurements from patent publication US8846639B2, “Oligomeric compounds comprising bicyclic nucleosides and having reduced toxicity” (Isis Pharmaceutical, Inc., priority 2008, dated 2014).

What was measured:
[1] = Liver, kidney, spleen weights and body weight gain (Example 13); type: in vivo, mice; conditions: for Kidney weight / Liver weight / Spleen weight: saline = 1.00; for Body weight gain: saline = 1.05; for liver, kidney, spleen weights or body weight gain compared to saline: normal mice, 20 and 60 mg/kg
Experimental: (§1) In accordance with the present invention, oligomeric compounds were synthesized and tested for their ability to reduce PTEN expression in vivo at doses of 20 and 60 mg/kg. Six week old male Balb/c mice (Jackson Laboratory, Bar Harbor, Me.) were administered a single intraperitoneal (i.p) injection at either 20 or 60 mg/kg of 4′-CH2—O-2′ BNA 2-10-2 gapped oligomers ([…] and 392745). The 4′-CH2—O-2′ BNA gapped oligomer, 392745, contains non-methylated pyrimidine in the wings. The 4′-CH2—O-2′ BNA gapped oligomer, 392063, contains methylated pyrimidine in the wings (i.e. each cytosine residues in the 4′-CH2—O-2′ BNA wings of 392745 are replaced with 5-methylcytosines, while the thymidine residues in the 4′-CH2—O-2′ BNA wings of 392745 are replaced with 5-methyl thymidines). All internucleoside linkages are phosphorothioates, nucleosides not followed by a subscript are βD-2′-deoxyribonucleosides, nucleosides followed by a subscript 1 are 4′-CH2—O-2′ modified bicyclic nucleosides and ^MeC indicates a 5′-methyl cytosine nucleoside.
The effects on liver, kidney, spleen weights and body weight gain were also determined.

PTEN mRNA [2] = assay: PTEN mRNA levels in liver, real-time PCR (Example 13 in vivo study); conditions: Balb/c mice, 72 h, normalized to saline control
Experimental: as §1
(§2) Each dose group consisted of four animals. The mice were sacrificed 72 hours following the final administration to determine the PTEN mRNA levels in liver using real-time PCR and RIBOGREEN® RNA quantification reagent (Molecular Probes, Inc. Eugene, Oreg.) according to standard protocols. PTEN mRNA levels were determined relative to total RNA (using Ribogreen), prior to normalization to saline-treated control. Results are listed below as the average % inhibition of mRNA expression for each treatment group, normalized to saline-injected control. Resulting dose-response curves were used to determine the IC50. Tm's were assessed in 100 mM phosphate buffer, 0.1 mM EDTA, pH 7, at 260 nm using 4 μM modified oligomers and 4 μM complementary RNA.

complementary RNA = assay: Tm of modified oligomers with complementary RNA; type: binding; conditions: 100 mM phosphate buffer, 0.1 mM EDTA, pH 7, 260 nm, 4 μM oligomer and 4 μM complementary RNA
Experimental: as §2

[3] = Liver transaminase (ALT) levels in serum (Example 14); type: in vivo, mice
Experimental: (§3) Six week old male Balb/c mice (Jackson Laboratory, Bar Harbor, Me.) were administered a single intraperitoneal (i.p) injection with 4′-CH2—O-2′ BNA containing oligomers (392745 and 392063) and 6(S)-4′-CH(CH3)—O-2′ BNA containing oligomers (392749 and 411847) at a does of 3.2, 10, 32, 66 and 100 mg/kg. Oligomers 392063 and 411847 contain LNA nucleosides with methylated pyrimidines, and oligomers 392745 and 392749 contain LNA nucleosides with non-methylated pyrimidines in the wings. All intemucleoside linkages are phosphorothioates, nucleosides not followed by a subscript are βD-2′-deoxyribonucleosides, nucleosides followed by a subscript 1 are 4′-CH2—O-2′ modified bicyclic nucleosides, nucleosides followed by a subscript S are 6(S)-4′-CH(CH3)—O-2′ modified bicyclic nucleosides wherein S indicates the configuration at the 6 carbon atom and ^MeC indicates a 5′-methyl cytosine nucleoside.
Liver transaminase levels, alanine aminotranferease (ALT) and aspartate aminotransferase (AST), in serum were also measured relative to saline injected mice. Increases in the transaminase levels can indicate hepatotoxicity. The approximate liver transaminase levels are listed below.

[4] = Liver transaminase levels (ALT, AST) in serum (Example 13); type: in vivo, mice; conditions: for transaminase levels with respect to saline treated control: 20 mg/kg; for ALT / AST: serum; for ALT: saline = 24; for AST: saline = 68
Experimental: as §1
Liver transaminase levels, alanine aminotranferease (ALT) and aspartate aminotransferase (AST), in serum were also measured relative to saline injected mice. Increases in the transaminase levels can indicate hepatotoxicity. […] The ALT and AST levels measured for mice treated with 60 mg/kg does of 392745 were decreased about 4.5-fold and 3 fold as compared to 392063 treatment. The approximate liver transaminase levels are listed below.

PTEN mRNA [5] = assay: PTEN mRNA levels in liver, real-time PCR (Example 14 in vivo study); set-up: species or system mice; conditions: for PTEN mRNA levels (% inhibition): liver, 72 h; for ED50: estimated, Graphpad Prism, dose at which 50% mRNA reduction is observed
Experimental: as §3
Each dose group consisted of four animals. The mice were sacrificed 72 hours following the final administration to determine the PTEN mRNA levels in liver using real-time PCR and RIBOGREEN® RNA quantification reagent (Molecular Probes, Inc. Eugene, Oreg.) according to standard protocols. PTEN mRNA levels were determined relative to total RNA (using Ribogreen), prior to normalization to saline-treated control. Results are listed below as the average % inhibition of mRNA expression for each treatment group, normalized to saline-injected control.
Estimated ED50 concentrations for each oligomers were calculated using Graphpad Prism. ED50 is the dose at which 50% mRNA reducation is observed.

Row | Substance | Kidney weight ([1]; 20 mg/kg) | Liver weight ([1]; 20 mg/kg) | Spleen weight ([1]; 20 mg/kg) | Body weight gain ([1]; 20 mg/kg) | Kidney weight ([1]; 60 mg/kg) | Liver weight ([1]; 60 mg/kg) | Spleen weight ([1]; 60 mg/kg) | Body weight gain ([1]; 60 mg/kg) | liver, kidney, spleen weights or body weight gain compared to saline [1] | % inhibition (PTEN mRNA expression in liver) (PTEN mRNA [2]; 20 mg/kg single i.p.) [%] | % inhibition (PTEN mRNA expression in liver) (PTEN mRNA [2]; 60 mg/kg single i.p.) [%] | Tm (complementary RNA) [°C] | ALT levels ([3]; 3.2 mg/kg, serum, saline = 24) [IU/L] | ALT levels ([3]; 10 mg/kg, serum, saline = 24) [IU/L] | ALT levels ([3]; 32 mg/kg, serum, saline = 24) [IU/L] | ALT levels ([3]; 66 mg/kg, serum, saline = 24) [IU/L] | ALT levels ([3]; 100 mg/kg, serum, saline = 24) [IU/L] | transaminase levels with respect to saline treated control [4] | ALT ([4]; 20 mg/kg single i.p.) [IU/L] | AST ([4]; 20 mg/kg single i.p.) [IU/L] | other results
1 | ^MeC1T1TAGCACTGGC^MeC1T1 [ISIS 392063] | 1.02 | 1.22 | 0.99 | 1.05 | 1.00 | 1.29 | 1.11 | 0.99 | did not substantially alter | 86 | 92 | 60.5 | 20 | 17 | 20 | 4292 | 13811 | not elevated to a level indicative of hepatotoxicity | 28 | 56 | ALT levels ([3]; higher doses (66 mg/kg and 100 mg/kg)): substantially increased; ALT and AST levels ([4]; 60 mg/kg): substantially increased; ALT ([4]; 60 mg/kg single i.p.): 489 IU/L; AST ([4]; 60 mg/kg single i.p.): 598 IU/L; PTEN mRNA levels (% inhibition) (PTEN mRNA [5]; 3.2 mg/kg single i.p.): 0%; PTEN mRNA levels (% inhibition) (PTEN mRNA [5]; 10 mg/kg single i.p.): 68%; PTEN mRNA levels (% inhibition) (PTEN mRNA [5]; 32 mg/kg single i.p.): 88%; PTEN mRNA levels (% inhibition) (PTEN mRNA [5]; 66 mg/kg single i.p.): 90%; PTEN mRNA levels (% inhibition) (PTEN mRNA [5]; 100 mg/kg single i.p.): 91%; ED50 (PTEN mRNA [5]): 8 mg/kg
2 | C1U1TAGCACTGGCC1U1 [ISIS 392745] | 1.02 | 1.22 | 1.14 | 1.06 | 1.02 | 1.25 | 1.12 | 1.01 | did not substantially alter | 89 | 92 | 58.6 | 30 | 20 | 13 | 59 | 3842 | not elevated to a level indicative of hepatotoxicity | 29 | 81 | ALT level decrease as compared to 392063 treatment ([3]; 100 mg/kg): about 3.5 fold; ALT levels with respect to saline treated control ([3]; lower doses (3.2, 10, 32 and 66 mg/kg)): not elevated to a level indicative of hepatotoxicity; ALT level decrease as compared to 392063 treatment ([4]; 60 mg/kg): about 4.5 fold; AST level decrease as compared to 392063 treatment ([4]; 60 mg/kg): ~3 fold; ALT ([4]; 60 mg/kg single i.p.): 108 IU/L; AST ([4]; 60 mg/kg single i.p.): 202 IU/L; PTEN mRNA levels (% inhibition) (PTEN mRNA [5]; 3.2 mg/kg single i.p.): 0%; PTEN mRNA levels (% inhibition) (PTEN mRNA [5]; 10 mg/kg single i.p.): 58%; PTEN mRNA levels (% inhibition) (PTEN mRNA [5]; 32 mg/kg single i.p.): 90%; PTEN mRNA levels (% inhibition) (PTEN mRNA [5]; 66 mg/kg single i.p.): 90%; PTEN mRNA levels (% inhibition) (PTEN mRNA [5]; 100 mg/kg single i.p.): 93%; ED50 (PTEN mRNA [5]): 9 mg/kg
